Assay: Simulated gastrointestinal dissolution testing (FloVitro apparatus, USP simulated gastric and intestinal fluids)
Assay type: physicochemical
Conditions: 100 mg dose
Method: The dissolution test used procedures devised by DOW Chemical using their proprietary FloVitro™ dissolution apparatus described in U.S. Pat. No. 6,799,123B2 and in the publication titled “FloVitro™ Technology” published online at:
The system used two different media that were combined during the process. The fluid flow rates were:
Simulated gastric fluid=7.7 ml/min
Simulated intestinal fluid=13.1 ml/mi
Total flow through analyzer=20.8 ml/min
To Cell 1: USP simulated gastric fluid (no pepsin)
To Cell 2: USP simulated intestinal fluid (pH 6.8) (SIF)
The samples tested were: • a) 100 mg dose neat benzonatate • b) 220.48 mg of IRP69H resinate: 87.97 mg benzonatate dose • c) 225.15 mg of IRP64H resinate: 102.21 mg benzonatate dose a) 100 mg Neat Benzonatate

- Concentration of Homolog in Effluent Total (0 min): 0.00 mg/L
- Concentration of Homolog in Effluent n = 3 (0 min): 0.00 mg/L
- Concentration of Homolog in Effluent n = 4 (0 min): 0.00 mg/L
- Concentration of Homolog in Effluent n = 5 (0 min): 0.00 mg/L
- Concentration of Homolog in Effluent n = 6 (0 min): 0.00 mg/L
- Concentration of Homolog in Effluent n = 7 (0 min): 0.00 mg/L
- Concentration of Homolog in Effluent n = 8 (0 min): 0.00 mg/L
- Concentration of Homolog in Effluent n = 9 (0 min): 0.00 mg/L
- Concentration of Homolog in Effluent n = 10 (0 min): 0.00 mg/L
- Concentration of Homolog in Effluent n = 11 (0 min): 0.00 mg/L
- Concentration of Homolog in Effluent n = 12 (0 min): 0.00 mg/L
- Concentration of Homolog in Effluent n = 13 (0 min): 0.00 mg/L
- Concentration of Homolog in Effluent n = 14 (0 min): 0.00 mg/L
- Concentration of Homolog in Effluent n = 15 (0 min): 0.00 mg/L
- Concentration of Homolog in Effluent n = 16 (0 min): 0.00 mg/L
- Concentration of Homolog in Effluent n = 17 (0 min): 0.00 mg/L
- Concentration of Homolog in Effluent Total (10 min): 13.84 mg/L
- Concentration of Homolog in Effluent n = 3 (10 min): 0.04 mg/L
- Concentration of Homolog in Effluent n = 4 (10 min): 0.14 mg/L
- Concentration of Homolog in Effluent n = 5 (10 min): 0.41 mg/L
- Concentration of Homolog in Effluent n = 6 (10 min): 0.85 mg/L
- Concentration of Homolog in Effluent n = 7 (10 min): 1.42 mg/L
- Concentration of Homolog in Effluent n = 8 (10 min): 1.92 mg/L
- Concentration of Homolog in Effluent n = 9 (10 min): 2.14 mg/L
- Concentration of Homolog in Effluent n = 10 (10 min): 2.06 mg/L
- Concentration of Homolog in Effluent n = 11 (10 min): 1.80 mg/L
- Concentration of Homolog in Effluent n = 12 (10 min): 1.26 mg/L
- Concentration of Homolog in Effluent n = 13 (10 min): 0.84 mg/L
- Concentration of Homolog in Effluent n = 14 (10 min): 0.49 mg/L
- Concentration of Homolog in Effluent n = 15 (10 min): 0.27 mg/L
- Concentration of Homolog in Effluent n = 16 (10 min): 0.12 mg/L
- Concentration of Homolog in Effluent n = 17 (10 min): 0.08 mg/L
- Cumul. (cumulative release in effluent) (10 min): 1.44 mg
- Concentration of Homolog in Effluent Total (20 min): 28.13 mg/L
- Concentration of Homolog in Effluent n = 3 (20 min): 0.07 mg/L
- Concentration of Homolog in Effluent n = 4 (20 min): 0.28 mg/L
- Concentration of Homolog in Effluent n = 5 (20 min): 0.78 mg/L
- Concentration of Homolog in Effluent n = 6 (20 min): 1.73 mg/L
- Concentration of Homolog in Effluent n = 7 (20 min): 2.91 mg/L
- Concentration of Homolog in Effluent n = 8 (20 min): 3.90 mg/L
- Concentration of Homolog in Effluent n = 9 (20 min): 4.38 mg/L
- Concentration of Homolog in Effluent n = 10 (20 min): 4.18 mg/L
- Concentration of Homolog in Effluent n = 11 (20 min): 3.58 mg/L
- Concentration of Homolog in Effluent n = 12 (20 min): 2.65 mg/L
- Concentration of Homolog in Effluent n = 13 (20 min): 1.73 mg/L
- Concentration of Homolog in Effluent n = 14 (20 min): 1.03 mg/L
- Concentration of Homolog in Effluent n = 15 (20 min): 0.55 mg/L
- Concentration of Homolog in Effluent n = 16 (20 min): 0.25 mg/L
- Concentration of Homolog in Effluent n = 17 (20 min): 0.08 mg/L
- Cumul. (cumulative release in effluent) (20 min): 8.00 mg
- Concentration of Homolog in Effluent Total (30 min): 34.97 mg/L
- Concentration of Homolog in Effluent n = 3 (30 min): 0.08 mg/L
- Concentration of Homolog in Effluent n = 4 (30 min): 0.35 mg/L
- Concentration of Homolog in Effluent n = 5 (30 min): 0.98 mg/L
- Concentration of Homolog in Effluent n = 6 (30 min): 2.10 mg/L
- Concentration of Homolog in Effluent n = 7 (30 min): 3.61 mg/L
- Concentration of Homolog in Effluent n = 8 (30 min): 4.89 mg/L
- Concentration of Homolog in Effluent n = 9 (30 min): 5.47 mg/L
- Concentration of Homolog in Effluent n = 10 (30 min): 5.28 mg/L
- Concentration of Homolog in Effluent n = 11 (30 min): 4.52 mg/L
- Concentration of Homolog in Effluent n = 12 (30 min): 3.29 mg/L
- Concentration of Homolog in Effluent n = 13 (30 min): 2.13 mg/L
- Concentration of Homolog in Effluent n = 14 (30 min): 1.27 mg/L
- Concentration of Homolog in Effluent n = 15 (30 min): 0.63 mg/L
- Concentration of Homolog in Effluent n = 16 (30 min): 0.28 mg/L
- Concentration of Homolog in Effluent n = 17 (30 min): 0.09 mg/L
- Cumul. (cumulative release in effluent) (30 min): 15.52 mg
- Concentration of Homolog in Effluent Total (40 min): 37.37 mg/L
- Concentration of Homolog in Effluent n = 3 (40 min): 0.09 mg/L
- Concentration of Homolog in Effluent n = 4 (40 min): 0.40 mg/L
- Concentration of Homolog in Effluent n = 5 (40 min): 1.10 mg/L
- Concentration of Homolog in Effluent n = 6 (40 min): 2.27 mg/L
- Concentration of Homolog in Effluent n = 7 (40 min): 3.86 mg/L
- Concentration of Homolog in Effluent n = 8 (40 min): 5.23 mg/L
- Concentration of Homolog in Effluent n = 9 (40 min): 5.81 mg/L
- Concentration of Homolog in Effluent n = 10 (40 min): 5.66 mg/L
- Concentration of Homolog in Effluent n = 11 (40 min): 4.80 mg/L
- Concentration of Homolog in Effluent n = 12 (40 min): 3.47 mg/L
- Concentration of Homolog in Effluent n = 13 (40 min): 2.31 mg/L
- Concentration of Homolog in Effluent n = 14 (40 min): 1.35 mg/L
- Concentration of Homolog in Effluent n = 15 (40 min): 0.67 mg/L
- Concentration of Homolog in Effluent n = 16 (40 min): 0.25 mg/L
- Concentration of Homolog in Effluent n = 17 (40 min): 0.10 mg/L
- Cumul. (cumulative release in effluent) (40 min): 23.20 mg
- Concentration of Homolog in Effluent Total (50 min): 36.42 mg/L
- Concentration of Homolog in Effluent n = 3 (50 min): 0.11 mg/L
- Concentration of Homolog in Effluent n = 4 (50 min): 0.40 mg/L
- Concentration of Homolog in Effluent n = 5 (50 min): 1.05 mg/L
- Concentration of Homolog in Effluent n = 6 (50 min): 2.18 mg/L
- Concentration of Homolog in Effluent n = 7 (50 min): 3.76 mg/L
- Concentration of Homolog in Effluent n = 8 (50 min): 5.07 mg/L
- Concentration of Homolog in Effluent n = 9 (50 min): 5.67 mg/L
- Concentration of Homolog in Effluent n = 10 (50 min): 5.51 mg/L
- Concentration of Homolog in Effluent n = 11 (50 min): 4.71 mg/L
- Concentration of Homolog in Effluent n = 12 (50 min): 3.42 mg/L
- Concentration of Homolog in Effluent n = 13 (50 min): 2.23 mg/L
- Concentration of Homolog in Effluent n = 14 (50 min): 1.28 mg/L
- Concentration of Homolog in Effluent n = 15 (50 min): 0.67 mg/L
- Concentration of Homolog in Effluent n = 16 (50 min): 0.27 mg/L
- Concentration of Homolog in Effluent n = 17 (50 min): 0.09 mg/L
- Cumul. (cumulative release in effluent) (50 min): 30.53 mg
- Concentration of Homolog in Effluent Total (60 min): 34.04 mg/L
- Concentration of Homolog in Effluent n = 3 (60 min): 0.07 mg/L
- Concentration of Homolog in Effluent n = 4 (60 min): 0.37 mg/L
- Concentration of Homolog in Effluent n = 5 (60 min): 0.99 mg/L
- Concentration of Homolog in Effluent n = 6 (60 min): 2.07 mg/L
- Concentration of Homolog in Effluent n = 7 (60 min): 3.55 mg/L
- Concentration of Homolog in Effluent n = 8 (60 min): 4.76 mg/L
- Concentration of Homolog in Effluent n = 9 (60 min): 5.36 mg/L
- Concentration of Homolog in Effluent n = 10 (60 min): 5.13 mg/L
- Concentration of Homolog in Effluent n = 11 (60 min): 4.41 mg/L
- Concentration of Homolog in Effluent n = 12 (60 min): 3.17 mg/L
- Concentration of Homolog in Effluent n = 13 (60 min): 2.09 mg/L
- Concentration of Homolog in Effluent n = 14 (60 min): 1.25 mg/L
- Concentration of Homolog in Effluent n = 15 (60 min): 0.56 mg/L
- Concentration of Homolog in Effluent n = 16 (60 min): 0.26 mg/L
- Concentration of Homolog in Effluent n = 17 (60 min): 0.00 mg/L
- Cumul. (cumulative release in effluent) (60 min): 63.41 mg
Structure (SMILES): CCCCNc1ccc(C(=O)OCCOCCOCCOCCOCCOCCOCCOCCOCCOC)cc1 [BENZ, benzonatate]

Source: patent US8808743B2, “Benzonatate compositions and methods of use” (priority 2010, dated 2014)
